Counter-ions that a name gives are not always drawn.

The target of one assay is T1, Apelin receptor (Homo sapiens, UniProt P35414).
T1 sequence (P35414 whole entry): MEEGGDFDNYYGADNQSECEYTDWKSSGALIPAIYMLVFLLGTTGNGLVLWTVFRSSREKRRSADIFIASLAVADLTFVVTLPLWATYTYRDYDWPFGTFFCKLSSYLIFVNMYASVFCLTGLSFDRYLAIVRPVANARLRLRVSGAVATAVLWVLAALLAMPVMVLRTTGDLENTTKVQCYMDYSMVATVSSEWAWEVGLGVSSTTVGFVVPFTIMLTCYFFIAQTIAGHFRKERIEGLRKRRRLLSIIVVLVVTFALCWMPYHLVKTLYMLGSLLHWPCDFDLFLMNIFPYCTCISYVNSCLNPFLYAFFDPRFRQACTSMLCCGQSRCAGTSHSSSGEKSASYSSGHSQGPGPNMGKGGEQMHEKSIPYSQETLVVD
Description: apelin receptor activators, concentration-response – cell-based, luminescence, uHTS hits, dose response (AID 488748).
Settings: not given
A word on the EC50: it is the concentration needed to bring the measured effect to its halfway point. A high value points to a less potent agent. Take `CCN1C(c2ccccc2)=C(c2ccccc2)S/C1=C\C=C1/SC(=S)N(C)C1=O` [MLS000526292]: the EC50 stood at 7.9 µM.

In turn, `COC(=O)C1C(Cn2cnc3ccccc32)=NC(=O)NC1c1cc(C)ccc1C` (stereo not given) [methyl 6-(benzimidazol-1-ylmethyl)-4-(2,5-dimethylphenyl)-2-oxo-3,4-dihydro-1H-pyrimidine-5-carboxylate] returned an EC50 of over 100 µM.

`COc1cc2c(cc1NC(=O)c1cc(-c3cccnc3)nc3ccc(C)cc13)oc1ccccc12` [N-(2-methoxydibenzofuran-3-yl)-6-methyl-2-pyridin-3-ylquinoline-4-carboxamide] showed an EC50 of over 100 µM.

`COC/C=C/C1=CC2=CC(=O)C(C)(OC(=O)c3cnc4ccccc4n3)C(=O)C2=CN1c1ccccc1` (stereo not given) showed an EC50 of over 100 µM.

`CCN(CC)CCNC(=O)c1ccc(NC(=O)c2cc(-c3ccco3)nc3ccccc23)cc1` returned an EC50 of over 100 µM.

`CN(C)CCCN(C(=O)c1ccc(S(=O)(=O)N2CCc3ccccc3C2)cc1)c1nc2c(F)cccc2s1` [SMR000807825] displayed an EC50 of over 100 µM.

In turn, `NC(=NOS(=O)(=O)c1ccc2ccccc2c1)c1ccncc1` [N'-[(2-naphthylsulfonyl)oxy]-4-pyridinecarboximidamide] displayed an EC50 of over 100 µM.

In the case of `CCOc1ccc2nc(N(CCCN(C)C)C(=O)c3ccc(S(=O)(=O)N4CCc5ccccc5C4)cc3)sc2c1`, the EC50 was over 100 µM.

As for `CCOc1cc2[nH]c(=S)n(CCN3CCCCC3CC)c(=O)c2cc1OCC` (stereo not given) [MLS000520831], the EC50 was over 100 µM.

The compound `Cc1cc(C)c2nc(NNC(=O)c3ccc(S(=O)(=O)N4CCc5ccccc5C4)cc3)sc2c1` came in with an EC50 of over 100 µM.

Compound `COc1cc2c(cc1NC(=O)c1cc(-c3ccncc3)nc3ccc(C)cc13)oc1ccccc12` showed an EC50 of over 100 µM.

`CCCCCCC1=Cc2c/c(=C3/NN=C(c4cc(OC)c(OC)c(OC)c4)O3)c(=O)oc2=CC1=O` returned an EC50 of over 100 µM.

For the compound `CCOc1cccc2sc(N(CCCN(C)C)C(=O)c3ccc(S(=O)(=O)N4CCc5ccccc5C4)cc3)nc12` [4-(3,4-dihydro-1H-isoquinolin-2-ylsulfonyl)-N-[3-(dimethylamino)propyl]-N-(4-ethoxy-1,3-benzothiazol-2-yl)benzamide;hydrochloride], the EC50 is over 100 µM.

In the case of `CCCCC1=CC2=CC(=O)C(C)(OC(=O)C3CCCC3)C(=O)C2=CO1` (stereo not given) [cyclopentanecarboxylic acid (3-butyl-7-methyl-6,8-dioxo-2-benzopyran-7-yl) ester], the EC50 was over 100 µM.

For the compound `CCOc1ccc2nc(O)c(CN(CCO)C(c3nnnn3C3CCCCC3)C(C)C)cc2c1` (stereo not given) [SMR000004541], the EC50 was over 100 µM.

Regarding `CCC(C)NC(=O)CSC1=Nc2ccccc2C2=NC(CC(=O)NCc3ccc(F)cc3)C(=O)N12` (stereo not given), the concentration for a half-maximal effect (EC50) was over 100 µM.

For `O=c1oc2cc(OCc3ccc([N+](=O)[O-])cc3)ccc2c2c1CCCC2` [SMR000176214], the EC50 was over 100 µM.

For the compound `CCCCC1=CC2=CC(=O)C(C)(OC(=O)CC)C(=O)C2=CN1c1ccccc1` (stereo not given) [CMLD003542], the EC50 is over 100 µM.

Take `Cc1ccc2nc(C(C#N)=Cc3ccc([N+](=O)[O-])o3)[nH]c2c1`: the EC50 is over 100 µM.

As to `CCOc1cc2[nH]c(=S)n(CCN3CCC(C)CC3)c(=O)c2cc1OCC` [6,7-diethoxy-3-[2-(4-methyl-1-piperidinyl)ethyl]-2-sulfanylidene-1H-quinazolin-4-one], the EC50 was over 100 µM.

Compound `Cc1cc(C)c2sc(N(CCCN(C)C)C(=O)c3ccc(S(=O)(=O)N4CCc5ccccc5C4)cc3)nc2c1` [MLS001239249] gave an EC50 of over 100 µM.

`COc1ccc(OC)c2sc(N(CCCN(C)C)C(=O)c3ccc(S(=O)(=O)N4CCc5ccccc5C4)cc3)nc12` [MLS001239200] registered an EC50 of over 100 µM.

`CC1CCCCN1S(=O)(=O)c1ccc(C(=O)N(CCCN(C)C)c2nc3ccc(Br)cc3s2)cc1` (stereo not given) came in with an EC50 of over 100 µM.

In the case of `CC(C)C(=O)N1CCN(c2ccc(NC(=O)COc3ccccc3[N+](=O)[O-])cc2)CC1` [N-[4-(4-isobutyryl-1-piperazinyl)phenyl]-2-(2-nitrophenoxy)acetamide], the concentration giving a half-maximal response (EC50) was over 100 µM.

In turn, `COc1cccc2sc(N(CCCN(C)C)C(=O)c3ccc(S(=O)(=O)N4CCc5ccccc5C4)cc3)nc12` [MLS001239312] yielded an EC50 of over 100 µM.

For the compound `CN(C)CCCN(C(=O)c1ccc(S(=O)(=O)N2CCc3ccccc3C2)cc1)c1nc2ccc(F)cc2s1` [SMR000807789], the EC50 was over 100 µM.

With `Cc1ccc2nc(NNC(=O)c3ccc(S(=O)(=O)N4CCc5ccccc5C4)cc3)sc2c1` [SMR000235768], the EC50 is over 100 µM.

For the compound `CCCCNc1c(-c2cccc(-c3ccc(OC)cc3)c2)nc2ccc(C)cn12` [N-butyl-2-[3-(4-methoxyphenyl)phenyl]-6-methylimidazo[1,2-a]pyridin-3-amine;2,2,2-trifluoroacetic acid], the EC50 is over 100 µM.

`CCC(c1nnnn1CCOC)N(Cc1ccc(C)cc1)Cc1cc2cc(OC)ccc2[nH]c1=O` (stereo not given) gave an EC50 of over 100 µM.

In the case of `COc1ccc2sc(N(CCCN(C)C)C(=O)c3ccc(S(=O)(=O)N4CCc5ccccc5C4)cc3)nc2c1` [MLS001239377], the EC50 was over 100 µM.

For `Cn1ncc2c(ON=C(N)c3ccc(C(C)(C)C)cc3)ncnc21` [4-tert-butyl-N'-(1-methylpyrazolo[3,4-d]pyrimidin-4-yl)oxy-benzamidine], the EC50 was over 100 µM.

As to `CCOc1cc2[nH]c(=S)n(CCC(=O)N3CCc4ccccc4C3)c(=O)c2cc1OCC` [3-[3-(3,4-dihydro-1H-isoquinolin-2-yl)-3-oxidanylidene-propyl]-6,7-diethoxy-2-sulfanylidene-1H-quinazolin-4-one], the EC50 is over 100 µM.

For `CCOC(=O)N1CCN(S(=O)(=O)c2ccc(C(=O)N(CCCN(C)C)c3nc4ccc(Cl)cc4s3)cc2)CC1` [ethyl 4-[4-[(6-chloranyl-1,3-benzothiazol-2-yl)-[3-(dimethylamino)propyl]carbamoyl]phenyl]sulfonylpiperazine-1-carboxylate;hydrochloride], the EC50 was over 100 µM.

As for `Cc1ccc2nc(N(CCCN(C)C)C(=O)c3ccc(S(=O)(=O)N4CCc5ccccc5C4)cc3)sc2c1` [MLS001239478], the EC50 is over 100 µM.

`CCSc1nc(O)c(CC)c(=O)n1C(C)CC` (stereo not given) [SMR000103074] showed a half-maximal effective concentration (EC50) of over 100 µM.

The compound `CCOc1cc2[nH]c(=S)n(CC3CCCN3CC)c(=O)c2cc1OCC` (stereo not given) [SMR000030998] came in with a 50% effective concentration (EC50) of over 100 µM.

The compound `CSc1cccc(NC(=S)NC(=O)CCc2ccccc2)c1` [N-[(3-methylsulfanylphenyl)carbamothioyl]-3-phenyl-propanamide] came in with an EC50 of over 100 µM.

As for `COc1cccc2sc3ccc(NCCC4CCCN4C)cc3c(=O)c12` (stereo not given) [MLS001249993], the concentration for a half-maximal effect (EC50) is over 100 µM.

As to `Clc1cccc(CN2CCc3c([nH]c4ccccc34)C2)c1`, the EC50 was over 100 µM.

`CCOC(=O)C1C(Cn2cnc3ccccc32)=NC(=O)NC1c1cc(C)ccc1C` (stereo not given) [ethyl 6-(benzimidazol-1-ylmethyl)-4-(2,5-dimethylphenyl)-2-oxidanylidene-3,4-dihydro-1H-pyrimidine-5-carboxylate] gave an EC50 of over 100 µM.

On to `COc1cc(NC(=S)NC(=O)CCc2ccccc2)cc(OC)c1` [SMR000668635], for which the EC50 was over 100 µM.

In turn, `CCOc1ccc2nc(O)c(CN(Cc3ccco3)C(CC)c3nnnn3Cc3ccccc3)cc2c1` (stereo not given) [3-({[1-(1-Benzyl-1H-tetrazol-5-yl)-propyl]-furan-2-ylmethyl-amino}-methyl)-6-ethoxy-1H-quinolin-2-one] returned an EC50 of over 100 µM.

`CN(C)CCCN(C(=O)c1cc2cc([N+](=O)[O-])ccc2s1)c1nc2cc3c(cc2s1)OCCO3` [SMR000807865] registered an EC50 of over 100 µM.

In the case of `C=CCn1c(SCC(=O)N2CCN(c3ccccc3)CC2)nc2c([nH]c3ccccc32)c1=O` [MLS001236003], the EC50 is over 100 µM.

Take `CCN(CC)CCNC(=O)c1cc(-c2cccnc2)nc2ccc(S(=O)(=O)N3CCC(C)CC3)cc12` [N-[2-(diethylamino)ethyl]-6-[(4-methyl-1-piperidinyl)sulfonyl]-2-(3-pyridinyl)-4-quinolinecarboxamide]: the EC50 was over 100 µM.

For the compound `Cc1ccc(C=NNC(=O)CSc2nnc(-c3ccccc3)n2-c2ccc(Cl)cc2)o1` [SMR000217660], the EC50 is over 100 µM.

Compound `COc1cccc2sc3cc(NCC[C@@H]4CCCN4C)ccc3c(=O)c12` returned an EC50 of over 100 µM.

`CCC(c1nnnn1Cc1ccccc1)N(Cc1cc2cc(OC)ccc2[nH]c1=O)CC1CCCO1` (stereo not given) [3-[[1-(1-benzyltetrazol-5-yl)propyl-(oxolan-2-ylmethyl)amino]methyl]-6-methoxy-1H-quinolin-2-one]: the EC50 is over 100 µM.

`CC1(OC(=O)C2CCCC2)C(=O)C=C2C=C(c3ccsc3)N(C3CCCC3)C=C2C1=O` (stereo not given) [SMR000452667] showed an EC50 of over 100 µM.

As to `CCC(C)NC(=O)CSC1=Nc2ccccc2C2=NC(CC(=O)NCc3ccccc3)C(=O)N12` (stereo not given) [2-[5-[2-(butan-2-ylamino)-2-oxidanylidene-ethyl]sulfanyl-3-oxidanylidene-2H-imidazo[1,2-c]quinazolin-2-yl]-N-(phenylmethyl)ethanamide], the EC50 is over 100 µM.

`C=CCSc1nc(O)c(CC)c(=O)n1C(C)CC` (stereo not given) [1-butan-2-yl-5-ethyl-6-oxidanyl-2-prop-2-enylsulfanyl-pyrimidin-4-one] yielded an EC50 of 78.9 µM.

`Cc1ccc(C=NNC(=O)CSc2nnc(-c3ccc(Cl)cc3)n2-c2ccccc2)o1` [SMR000218122]: the EC50 was over 100 µM.

`CC(C)(C)OC(=O)NCCCCCc1cn([C@@H](CO)C(=O)NCCCCCCCCCCC(=O)N2CCN(C(=O)OC(C)(C)C)CC2)nn1` [Boc-KS]: the EC50 is over 100 µM.

The assay is the same for the next values; noted with them: inactive by the depositor's call.
`CCc1nnc(NC(=O)CSc2nc3cccnc3n2C2CCCCC2)s1` [MLS000073979] yielded an EC50 of 45.9 µM.

`CCCCC1=CC2=CC(=O)C(C)(OC(=O)CC)C(=O)C2=CN1C1CCCCC1` (stereo not given) yielded an EC50 of 77.6 µM.

The values above are taken from BindingDB's records for doi:10.7270/Q2NV9GP9 (Burnham Center For Chemical Genomics, 2010).
